In the oligonucleotide strings, read from the 5' end, every base follows the letter of its sugar. An asterisk marks phosphorothioate; unmarked linkages are phosphodiester. Other units and linkages are bracketed, terminal groups are in braces. A string of capitals states the bases alone. d = 2'-deoxy (DNA)
System: human meltrin α RNA
Assay: Suppression of human meltrin α expression by antisense compound in RD cell (real time PCR)
Assay type: cell-based
Conditions: 50 nM; RD cell; corrected by GAPDH
Procedure: First, RD cell (ATCC) was suspended in DMEM containing 10% fetal bovine serum (FBS, SIGMA), and the suspension was inoculated in 6 well culture plate at 2.5×10^5 cells/well/2 mL. After incubating overnight at 37° C. in the presence of 5% CO2, the cells were washed twice with serum-free DMEM, and Opti-MEM medium (GIBCO) was added at 800 μL/well.
Gene transfection reagent Lipofectin (Invitrogen) was diluted with Opti-MEM to 20 μg/mL, and the dilution was allowed to stand at room temperature for 30 minutes. Next, the antisense oligodeoxynucleotide synthesized as described above was heated at 90° C. for 3 minutes, and after quenching on ice, diluted with Opti-MEM to a concentration 10 times higher than the final concentration. Equal amounts of the Lipofectin in Opti-MEM and the antisense oligo DNA in Opti-MEM were mixed, and the mixture was incubated at room temperature for 15 minutes and added to 6 well plate at 200 μL/well.
The culture was incubated at 37° C. for 4 hours in the presence of 5% CO2, and the culture supernatant containing the Lipofectin was removed. The cells were washed twice with serum-free DMEM, and after adding 1 mL/well of Opti-MEM and incubating for 18 hours at 37° C. in the presence of 5% CO2, the cells were subjected to the measurement of the level of expression of meltrin α RNA.
After the washing, RNA was isolated from the cell by using RNA isolation kit (RNeasy Micro Kit, QIAGEN) according to the protocol of the kit, and RNA concentration was determined by measuring absorbance at a wavelength of 260 nm with a spectrophotometer (Nano prop, LMS Co., Ltd.) (1OD=40 μg/mL). After the quantitation, the RNA was prepared to a concentration of 0.1 μg/μL by using DEPC-treated water.
0.35 μg of the isolated RNA, and 3.5 μL of 10× TaqMan buffer, 7.7 μL of 25 mM MgCl2, 7.0 μL of 2.5 mM each dNTP Mix, 1.75 μL of 50 μM Random Hexamers, 0.7 μL of 20 U/μL RNase inhibitor, and 0.9 μL of 50 U/μL MultiScribe Reverse Transcriptase (all purchased from Applied Biosystems) were mixed, and water was added to make up the total volume to 35 μL. This solution was maintained at 25° C. for 10 minutes, at 48° C. for 30 minutes, and at 95° C. for 5 minutes, and reverse transcription was conducted to synthesize cDNA.
A solution in total volume of 20 μL containing 10 μL of TaqMan Universal PCR Master Mix, 0.4 μL of 10 μM TaqMan MGB Probe (sequence 5′FAM-caccgaaggacaatccca-MGB-3′: Applied Biosystems), 0.1 μL of 50 μM Forward primer (sequence ggaagccgccagattcct) for detecting meltrin α, 0.1 μL of 50 μM Reverse primer (sequence […]) for detecting meltrin α (all purchased from Sigma-Genosys), 5 μL of the cDNA solution of (3), and 4.4 μL of water was prepared, and after maintaining the solution at 50° C. for 2 minutes and at 95° C. for 10 minutes, PCR was conducted by repeating 40 cycles of 95° C. for 15 seconds and 60° C. for 1 minute in ABI Prism 7000.
The amount of the human meltrin α RNA was measured by conducting real time PCR by using the plasmid containing the cDNA coding for the human meltrin α for the template to generate the standard curve, and calculating RNA copy number of the meltrin α in each sample. The level of expression of GAPDH was also determined by using a primer and probe set for real time PCR of human GAPDH (Pre-Developed TaqMan Assay Reagents Human GAPDH (20×) (Cat# 4310884E, Applied Biosystems).
The results of the real time PCR of the meltrin α was corrected by the level of expression of the GAPDH to calculate the suppression rate. […]

Substance | suppression rate of expression, 50 nM
H110: caagccctgggtccggcatg (dC*dA*dA*dG*dC*dC*dC*dT*dG*dG*dG*dT*dC*dC*dG*dG*dC*dA*dT*dG; antisense) | + (“+” when the suppression rate was at least 30%)

Same assay, conditions: 200 nM; RD cell; corrected by GAPDH

Substance | suppression rate of expression, 200 nM
H075: cttcctgctgcaactgctga (dC*dT*dT*dC*dC*dT*dG*dC*dT*dG*dC*dA*dA*dC*dT*dG*dC*dT*dG*dA) | + (“+” when the suppression rate was at least 30%)
H076: tccaggctggtctccaagtc (dT*dC*dC*dA*dG*dG*dC*dT*dG*dG*dT*dC*dT*dC*dC*dA*dA*dG*dT*dC) | ++ (“++” when the suppression rate was at least 50%)
H077: ggcacacccccattcctttc (dG*dG*dC*dA*dC*dA*dC*dC*dC*dC*dC*dA*dT*dT*dC*dC*dT*dT*dT*dC) | + (“+” when the suppression rate was at least 30%)
H079: tggcccccgaaagactccct (dT*dG*dG*dC*dC*dC*dC*dC*dG*dA*dA*dA*dG*dA*dC*dT*dC*dC*dC*dT; antisense) | ++ (“++” when the suppression rate was at least 50%)
H080: caaatctgttcccacacttc (dC*dA*dA*dA*dT*dC*dT*dG*dT*dT*dC*dC*dC*dA*dC*dA*dC*dT*dT*dC; antisense) | + (“+” when the suppression rate was at least 30%)
H082: tcctctggctccccacagtc (dT*dC*dC*dT*dC*dT*dG*dG*dC*dT*dC*dC*dC*dC*dA*dC*dA*dG*dT*dC; antisense) | + (“+” when the suppression rate was at least 30%)
H084: cagggtacaggtggtggcat (dC*dA*dG*dG*dG*dT*dA*dC*dA*dG*dG*dT*dG*dG*dT*dG*dG*dC*dA*dT; antisense) | ++ (“++” when the suppression rate was at least 50%)
H085: gcgcacacagcgtccggctt (dG*dC*dG*dC*dA*dC*dA*dC*dA*dG*dC*dG*dT*dC*dC*dG*dG*dC*dT*dT; antisense) | + (“+” when the suppression rate was at least 30%)
H088: gagtccctgcacgctgttcc (dG*dA*dG*dT*dC*dC*dC*dT*dG*dC*dA*dC*dG*dC*dT*dG*dT*dT*dC*dC; antisense) | + (“+” when the suppression rate was at least 30%)
H089: ggaggtcacaggagttgctg (dG*dG*dA*dG*dG*dT*dC*dA*dC*dA*dG*dG*dA*dG*dT*dT*dG*dC*dT*dG; antisense) | + (“+” when the suppression rate was at least 30%)
H090: ggcccctgtgcagaactctg (dG*dG*dC*dC*dC*dC*dT*dG*dT*dG*dC*dA*dG*dA*dA*dC*dT*dC*dT*dG; antisense) | ++ (“++” when the suppression rate was at least 50%)
H091: ttggctgggcagtgagggct (dT*dT*dG*dG*dC*dT*dG*dG*dG*dC*dA*dG*dT*dG*dA*dG*dG*dG*dC*dT; antisense) | ++ (“++” when the suppression rate was at least 50%)
H092: gcccatcgtgcaggtacacg (dG*dC*dC*dC*dA*dT*dC*dG*dT*dG*dC*dA*dG*dG*dT*dA*dC*dA*dC*dG; antisense) | ++ (“++” when the suppression rate was at least 50%)
H093: gtccacatcctgacatgagt (dG*dT*dC*dC*dA*dC*dA*dT*dC*dC*dT*dG*dA*dC*dA*dT*dG*dA*dG*dT; antisense) | + (“+” when the suppression rate was at least 30%)
H094: atgccattgtagcagtagcc (dA*dT*dG*dC*dC*dA*dT*dT*dG*dT*dA*dG*dC*dA*dG*dT*dA*dG*dC*dC; antisense) | + (“+” when the suppression rate was at least 30%)
H096: tccccagagtgtgacacact (dT*dC*dC*dC*dC*dA*dG*dA*dG*dT*dG*dT*dG*dA*dC*dA*dC*dA*dC*dT; antisense) | + (“+” when the suppression rate was at least 30%)
H098: ctctctcaaagcagatccca (dC*dT*dC*dT*dC*dT*dC*dA*dA*dA*dG*dC*dA*dG*dA*dT*dC*dC*dC*dA; antisense) | + (“+” when the suppression rate was at least 30%)
H099: aggatcacctgcagaattga (dA*dG*dG*dA*dT*dC*dA*dC*dC*dT*dG*dC*dA*dG*dA*dA*dT*dT*dG*dA; antisense) | + (“+” when the suppression rate was at least 30%)
H100: actttgccacagttgccata (dA*dC*dT*dT*dT*dG*dC*dC*dA*dC*dA*dG*dT*dT*dG*dC*dC*dA*dT*dA; antisense) | + (“+” when the suppression rate was at least 30%)
H102: agcatctctcatctcgcatt (dA*dG*dC*dA*dT*dC*dT*dC*dT*dC*dA*dT*dC*dT*dC*dG*dC*dA*dT*dT; antisense) | + (“+” when the suppression rate was at least 30%)
H104: gccggctggcacctccttga (dG*dC*dC*dG*dG*dC*dT*dG*dG*dC*dA*dC*dC*dT*dC*dC*dT*dT*dG*dA; antisense) | +++ (“+++” when the suppression rate was at least 70%)
H105: ggcattggtaccaatgactg (dG*dG*dC*dA*dT*dT*dG*dG*dT*dA*dC*dC*dA*dA*dT*dG*dA*dC*dT*dG; antisense) | + (“+” when the suppression rate was at least 30%)
H107: ggcctccttgctgcaggggg (dG*dG*dC*dC*dT*dC*dC*dT*dT*dG*dC*dT*dG*dC*dA*dG*dG*dG*dG*dG; antisense) | ++ (“++” when the suppression rate was at least 50%)
H109: tcatcgcccaagtacacgtg (dT*dC*dA*dT*dC*dG*dC*dC*dC*dA*dA*dG*dT*dA*dC*dA*dC*dG*dT*dG; antisense) | ++ (“++” when the suppression rate was at least 50%)
H110: caagccctgggtccggcatg (dC*dA*dA*dG*dC*dC*dC*dT*dG*dG*dG*dT*dC*dC*dG*dG*dC*dA*dT*dG; antisense) | ++ (“++” when the suppression rate was at least 50%)
H111: acactttgtgcctgcaagca (dA*dC*dA*dC*dT*dT*dT*dG*dT*dG*dC*dC*dT*dG*dC*dA*dA*dG*dC*dA; antisense) | + (“+” when the suppression rate was at least 30%)

Same assay, conditions: 200 nM; chimeric 2′-methoxy antisense oligonucleotides; RD cell

Substance | suppression rate of expression, 200 nM
H076-OMe1: chimeric antisense oligonucleotide GCTGGtctccaagtcCTTCC, uppercase 2′-methoxy nucleotides, lowercase phosphorothioate nucleotides (GCTGGTCTCCAAGTCCTTCC; 2'-O-methyl at 1, 2, 3, 4, 5, 16, 17, 18, 19, 20, other sugars, backbone and T or U not given here; lowercase gap nucleotides phosphorothioate) | ++ (“++” when the suppression rate was at least 50%)
H076-OMe2: chimeric antisense oligonucleotide CTTTCtccaggctggTCTCC, uppercase 2′-methoxy nucleotides, lowercase phosphorothioate nucleotides (CTTTCTCCAGGCTGGTCTCC; 2'-O-methyl at 1, 2, 3, 4, 5, 16, 17, 18, 19, 20, other sugars, backbone and T or U not given here; lowercase gap nucleotides phosphorothioate) | +++ (“+++” when the suppression rate was at least 70%)
H077-OMe2: chimeric antisense oligonucleotide AAACAggcacaccccCATTC, uppercase 2′-methoxy nucleotides, lowercase phosphorothioate nucleotides (AAACAGGCACACCCCCATTC; 2'-O-methyl at 1, 2, 3, 4, 5, 16, 17, 18, 19, 20, other sugars, backbone and T or U not given here; lowercase gap nucleotides phosphorothioate) | + (“+” when the suppression rate was at least 30%)

Reference: patent US20080292619A1, “Pharmaceutical Composition Containing Meltrin Antagonist” (MOCHIDA PHARMACEUTICAL CO., LTD., priority 2004, published 2008)
